Results published in patent US20260284062A1 (Konstantin Pavlovich GARYAEV, priority 2023, published 2026).

Assays:
[1] = 0.5% Novocaine, 5.0-10.0 ml, in medicinal mixture administered into the recommended sites; cited from earlier work
[2] = test system: myocardial infarction, ischemic stroke and peripheral thrombosis; conditions: oral antiplatelet therapy with acetylsalicylic acid and clopidogrel; cited from earlier work
[3] = Patient history of statin treatment (tolerability); format: in vivo, human; conditions: history of patient M. (Example 1)

CCN(CC)CCOC(=O)c1ccc(N)cc1 [Novocaine]
undesirable effects [1]: reduction of arterial pressure up to collapse, dizziness, headache, arrhythmia

CC(=O)Oc1ccccc1C(=O)O [acetylsalicylic acid]
reduction of the risk of myocardial infarction, ischemic stroke and peripheral thrombosis [2]: 20-25%

COC(=O)[C@H](c1ccccc1Cl)N1CCc2sccc2C1 [clopidogrel]
reduction of the risk of myocardial infarction, ischemic stroke and peripheral thrombosis [2]: 20-25%

CCC(C)(C)C(=O)O[C@H]1C[C@@H](C)C=C2C=C[C@H](C)[C@H](CC[C@@H]3C[C@@H](O)CC(=O)O3)[C@H]21 [simvastatin]
tolerability of earlier treatment [3]: discontinued due to side effects
